What was measured:
[1] = test system: RSV A2; experiment: RSV lung titer in cotton rats after non-local (IP or SC) administration; type: in vivo, cotton rat (Sigmoden hispidis); details: for RSV titer (log10/g lung) Mean / RSV titer (log10/g lung) in cotton rat no. 1 / RSV titer (log10/g lung) in cotton rat no. 2 / RSV titer (log10/g lung) in cotton rat no. 3 / RSV titer (log10/g lung) in cotton rat no. 4 / RSV titer (log10/g lung) in CR no. 1 / RSV titer (log10/g lung) in CR no. 2 / RSV titer (log10/g lung) in CR no. 3 / RSV titer (log10/g lung) in CR no. 4: Non-ISS = SEQ ID NO:10
Method: (§1) Cotton rats, 50-100 g and 4-12 weeks old (Sigmoden hispidis) of either sex were used in these studies. All of the animals were descendants of two pair of cotton rats obtained in 1984 from the Small Animal Section of the Veterinary Research Branch, Division of Research Services, National Institutes of Health.
(§2) RSV strain A2 was purchased from the ATCC (ATCC VR26). Working stocks of this virus were prepared as described in detail by Wyde et al. (1995) Pediatr. Res. 38:543-550. ISS sequence tested for RSV experiments was 5′-[…]-3′ (SEQ ID NO:1) (phosphorothioate). Control, non-ISS sequences used were 5′-[…]-3′ (SEQ ID NO:9) (phosphorothioate) and 5′-[…]-3′ (SEQ ID NO:10) (phosphorothioate), as well as PBS.
(§3) RSV levels in virus pools and lung lavage fluids (L.F.) were determined using sterile 96-well, flat bottom tissue culture plates (Falcon 3072), serial 3-fold dilutions and 2% FCS-MEM as described in detail previously (Wyde et al., 1995). […] The amount of virus in virus pools was expressed as a median tissue culture infectious doses (TCID50/ml, log10). Titers of virus in L.F. were expressed as TCID50/g lung tissue (log10). The minimum detectable virus concentration in these assays was 1.3 log10 TCID50/ml (virus pools) or 1.6 log10 TCID50/g lung.
Twenty cotton rats were divided into 5 groups of 4 animals. Administered to these animals, either intraperitoneally (IP) or subcutaneously (SC), was PBS, immunostimulatory sequence (ISS) 5′-[…]-3′ (SEQ ID NO:1) or non-ISS sequence 5′-[…]-3′ (SEQ ID NO:10), each sequence at 150 μg/injection. On Day 0 each of these animals was […] IN with 100 TCID50 of RSV A2. Four days later each cotton rat was sacrificed. The lungs of each animal were removed, lavaged and assessed for RSV.

[2] = test system: HSV-2 strain MS; experiment: Recurrent genital HSV-2 disease in guinea pigs; type: in vivo, Swiss Hartley guinea pigs
[3] = test system: HBV; experiment: Chronic HBV model: serum HBV DNA and HBsAg in STC transgenic mice; type: in vivo, STC strain transgenic mice
Method: ISS activity was tested in an animal model of chronic hepatitis. An ISS-containing phosphorothioate oligonucleotide (5′-[…]-3′) (SEQ ID NO:1), was delivered to STC strain transgenic mice, followed by measurement of HBV DNA and HBsAg production.
STC line mice were developed at Stanford University by Patricia Marion. The majority of these mice secrete HBV of the Ayw genotype (Galibert et al. (1979) Nature 281:646) to titers of 10^6-8 viral genome equivalents per ml of serum. STC mice were derived from the FVB strain, and were constructed by microinjection of HBV genomic DNA.
Approximately one month old mice were bled and tested for serum levels of HBsAg, which is predictive of viral DNA titer. A pool of 40 STC mice with approximately equal levels of HBsAg were selected and randomly assigned to four treatment groups of 10 animals each. The groups were treated as follows: • 1. 100 μg of ISS injected subcutaneously, once per week for 3 weeks (days 0, 7, 14) • 2. 100 μg of ISS injected subcutaneously, one injection at day 14 • 3. 100 ng of murine 1L-12 injected intraperitoneally on days 12, 13, and 14. • 4. PBS injected subcutaneously (days 0, 7, 14)
Blood samples were taken at day 0, 7, 14, 15 (22 hr after last IL-12 injection), 18, 28 and 35. Serum prepared from the blood samples was tested for HBV DNA by quantitative PCR (testing performed under contract by Hepadnavirus Testing, Inc.), and HBsAg using a commercially available EIA kit for HBsAg from Abbott Laboratories. Animals were sacrificed at day 35 and livers were collected for histologic analysis.

[4] = test system: RSV A2; experiment: RSV lung titer in cotton rats after local (intranasal) administration; type: in vivo, cotton rat (Sigmoden hispidis); details: for RSV titer (log10/g lung) Mean / RSV titer (log10/g lung) in CR No. 1 / RSV titer (log10/g lung) in CR No. 2 / RSV titer (log10/g lung) in CR No. 3 / RSV titer (log10/g lung) in CR No. 4: non-ISS = SEQ ID NO:9
Method: as §1, §2, §3
On day −3 (i.e., 3 days before infection with virus), 20 cotton rats (CRs) were selected and divided into five groups of four animals. The animals in Group 1 were lightly anesthetized and 50 μL of phosphate buffered saline (PBS) was administered intranasally (IN). The CRs in Group 2 were similarly administered 150 μg of ISS (5′-[…]-3′) (SEQ ID NO:1), while the animals in Group 3 were similarly administered 150 μg of control non-ISS sequence 5′-[…]-3′ (SEQ ID NO:9). Three days later, on Day 0, each of CRs in Group 4 were anesthetized and 150 μg of ISS was administered IN, and the animals in Group 5 were administered, in a like manner, 150 μg of control non-ISS sequence 5′-[…]-3′ (SEQ ID NO:9).
Thirty minutes later, all of the CRs were inoculated IN with 100 median tissue culture infectious doses (TCID50) of RSV A2. Four days later (Day 4), all of the animals were sacrificed and the lungs of each animal were removed, lavaged, and assessed for RSV levels.

[5] = 150 μg IP Day −1, RSV Day 0, lungs Day 4
[6] = 150 μg IP Day −3, RSV Day 0, lungs Day 4
[7] = 150 μg SC Day −1, RSV Day 0, lungs Day 4
[8] = 150 μg SC Day −3, RSV Day 0, lungs Day 4
[9] = 150 μg IN Day 0 (30 min before RSV), lungs Day 4
[10] = 150 μg IN Day −3, RSV Day 0, lungs Day 4

For “5′-TGACTGTGAACGTTCGAGATGA-3′ [SEQ ID NO: 1]”, the “RSV titer (log10/g lung) Mean” value [1, 5] was 3.6 log10/g lung, the “RSV titer (log10/g lung) in cotton rat no. 1” value [1, 5] was 3.8 log10/g lung and the “RSV titer (log10/g lung) in cotton rat no. 2” value [1, 5] was 3.3 log10/g lung. The “RSV titer (log10/g lung) in cotton rat no. 3” value [1, 5] was 3.3 log10/g lung, the “RSV titer (log10/g lung) in cotton rat no. 4” value [1, 5] was 3.8 log10/g lung and the “RSV titer (log10/g lung) Mean” value [1, 6] was 3.7 log10/g lung. For the same substance, the “RSV titer (log10/g lung) in cotton rat no. 1” value [1, 6] was 3.3 log10/g lung, the “RSV titer (log10/g lung) in cotton rat no. 2” value [1, 6] was 3.8 log10/g lung and the “RSV titer (log10/g lung) in cotton rat no. 3” value [1, 6] was 3.8 log10/g lung. The “RSV titer (log10/g lung) in cotton rat no. 4” value [1, 6] was 3.8 log10/g lung, the “RSV titer (log10/g lung) Mean” value [1, 7] was 4.0 log10/g lung and the “RSV titer (log10/g lung) in CR no. 1” value [1, 7] was 4 log10/g lung. The “RSV titer (log10/g lung) in CR no. 2” value [1, 7] was 4.5 log10/g lung, the “RSV titer (log10/g lung) in CR no. 3” value [1, 7] was 3.5 log10/g lung and the “RSV titer (log10/g lung) in CR no. 4” value [1, 7] was 4 log10/g lung. For the same substance, the “RSV titer (log10/g lung) Mean” value [1, 8] was 4.1 log10/g lung, the “RSV titer (log10/g lung) in CR no. 1” value [1, 8] was 4 log10/g lung and the “RSV titer (log10/g lung) in CR no. 2” value [1, 8] was 4.5 log10/g lung. For the same substance, the “RSV titer (log10/g lung) in CR no. 3” value [1, 8] was 4 log10/g lung, the “RSV titer (log10/g lung) in CR no. 4” value [1, 8] was 4 log10/g lung and the “Reduction in RSV viral titers compared to PBS” value ([1]; IP and SC administration of 150 μg) was “failed to cause a statistically significant reduction in viral titers”. The “Frequency of recurrences (recurrent lesions)” value ([2]; 200 μg at 21 days PI (one group also days 42 and 63), ANOVA p=0.012) was “significant reduction in the frequency of recurrences”, the “Effect on frequency of viral shedding” value ([2]; single topical treatment 1 mg at day 21) was “unaffected” and the “Magnitude of viral shedding” value ([2]; single topical treatment 1 mg at day 21, vs control groups, p<0.001) was “significantly reduced”. The “Cumulative mean recurrent lesion days” value ([2]; single topical treatment 1 mg at day 21, vs non-ISS control or untreated) was “significantly decreased the cumulative mean recurrent lesion days”, the “Reduction of mean viral DNA titer” value ([3]; Group 2: single SC injection 100 μg at day 14, three days after injection) was 90 fold and the “Serum HBsAg levels versus PBS controls” value ([3]; STC mice, 100 μg SC) was “trend towards decreased average HBsAg values”. For the same substance, the “Effect on serum HBV DNA viral titer” value ([3]; STC mice, ISS 100 μg SC, murine IL-12 100 ng IP days 12, 13, 14) was “effective in reducing viral titer”, the “RSV titer (log10/g lung) Mean” value [4, 9] was 3.9 log10/g lung and the “RSV titer (log10/g lung) in CR No. 1” value [4, 9] was 4 log10/g lung. For the same substance, the “RSV titer (log10/g lung) in CR No. 2” value [4, 9] was 4 log10/g lung, the “RSV titer (log10/g lung) in CR No. 3” value [4, 9] was 4.5 log10/g lung and the “RSV titer (log10/g lung) in CR No. 4” value [4, 9] was 3 log10/g lung. The “RSV titer (log10/g lung) Mean” value [4, 10] was 2.8 log10/g lung, the “RSV titer (log10/g lung) in CR No. 1” value [4, 10] was 3 log10/g lung and the “RSV titer (log10/g lung) in CR No. 2” value [4, 10] was 3 log10/g lung. The “RSV titer (log10/g lung) in CR No. 3” value [4, 10] was 2.5 log10/g lung, the “RSV titer (log10/g lung) in CR No. 4” value [4, 10] was 2.5 log10/g lung and the “Effect on RSV viral titer in infected tissue” value ([4]; IN administration 3 days before infection) was “effective at reducing viral titers”. The “Effect on RSV viral titer in infected tissue” value ([4]; first IN administration on the day of infection) was “not effective”.

From patent publication US20050059626A1, “Methods of preventing and treating viral infections using immunomodulatory polynucleotide sequences” (priority 2000, published 2005)
